Calls of active or inactive are those of the source.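 The calls were made as follows: active = AC50, the dose giving half-maximal effect, exceeds a fixed cutoff for a compound that rescues yeast growth under heat; inactive = the rest, inconclusive results apart.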

One may read the AC50 as the midpoint of the concentration-response curve, whichever way the signal moves.

The assay concerns S. cerevisiae Burl-1 ts mutant growth, BacTiter-Glo, 38.5C 24 h. The assay is described as follows: restored growth of temperature-sensitive Burl-1 yeast – whole organism, S. cerevisiae, Burl-1 ts mutant, luminescence, counter-screen for SUMOylation pathway inhibitor project, dose response (AID 463199).
As for `Cc1ccc(OCC(=O)NN2C(=O)c3ccccc3C2=O)c(C)c1`, the AC50 is > 42 µM (inactive).

Regarding `COc1ccc(NC(=O)c2cc(C)no2)cc1Cl`, the AC50 is > 42 µM (inactive).

In the case of `Cc1ccc(NC(=O)CN2C(=O)COc3ccc(S(=O)(=O)N4CCOCC4)cc32)cc1F`, the AC50 was > 42 µM (inactive).

Turning to `O=C(COc1ccc(Cl)cc1)NCCCNC(=O)c1ccccn1`, the AC50 is > 42 µM (inactive).

`CC(Cc1ccc(O)c(O)c1)C(C)Cc1ccc(O)c(O)c1` (stereo not drawn): the AC50 was > 42 µM (inactive).

For `CCNC(=O)/C(C#N)=C/c1c(N2CCCCCC2)nc2ccccn2c1=O`, the AC50 was > 42 µM (inactive).

As for `CS(=O)(=O)N(CC(=O)NCCSCc1ccccc1)c1ccc2c(c1)OCO2`, the AC50 is > 42 µM (inactive).

Take `O=c1[nH][nH]c(C(F)(F)F)c1C=NCc1cccs1`: the AC50 is > 42 µM (inactive).

As for `Fc1cccc(F)c1-c1nc(-c2ccncc2)no1`, the AC50 was > 42 µM (inactive).

In the case of `O=C1CN(C(=O)COC(=O)CCNS(=O)(=O)c2ccc(Cl)cc2)c2ccccc2N1`, the AC50 was > 42 µM (inactive).

Consider `O=C(Nc1ccccn1)c1ccc(CN(c2ccccc2)S(=O)(=O)c2ccccc2)cc1`, for which the AC50 was > 42 µM (inactive).

Regarding `COc1cccc(OC)c1C(=O)Nc1ccc2c(c1)N(S(=O)(=O)c1cccs1)CCC2`, the AC50 is > 42 µM (inactive).

On to `Cc1ccc(NC(=O)C(=O)NCC2CCCN2S(=O)(=O)c2cccs2)cc1` (stereo not drawn), for which the AC50 was > 42 µM (inactive).

With `COc1ccc(C(=O)CC(=O)C(=O)Nc2ccc(C)c(Cl)c2)cc1`, the AC50 was > 42 µM (inactive).

As for `CC1(C)CCc2cc(CN3CCN(c4ccccn4)CC3)ccc2O1`, the AC50 was > 42 µM (inactive).

Regarding `C/C(N)=C(/C#N)C(=O)CSc1nnc(-c2ccccc2)n1C`, the AC50 was > 42 µM (inactive).

As to `COc1ccccc1N1CCN(C(=O)C2CCN(S(=O)(=O)c3ccc(C)cc3)CC2)CC1`, the AC50 is > 42 µM (inactive).

In the case of `CCCCCCC(C)n1[nH]c(=O)c2c(C)cc(=O)[nH]c21` (stereo not drawn), the AC50 is > 42 µM (inactive).

`CC12CCC(=O)N1C(C(=O)Nc1ccccc1F)CS2` (stereo not drawn): the AC50 is > 42 µM (inactive).

`Cc1nnc(N=c2ssnc2Cl)o1`: the AC50 was > 42 µM (inactive).

On to `Nc1nc(SCc2nc3scc(-c4cccs4)c3c(=O)[nH]2)n[nH]1`, for which the AC50 was > 42 µM (inactive).

For `Cc1nc2sc(C(c3ccccc3)N3CCC(O)CC3)c(O)n2n1` (stereo not drawn), the AC50 was > 42 µM (inactive).

In the case of `Cc1cc(C)cc(C(=O)NC(CC(N)=O)c2ccc(N3CCC(N4CCCCC4)CC3)c([N+](=O)[O-])c2)c1` (stereo not drawn), the AC50 was > 42 µM (inactive).

Turning to `CC(Oc1ccccc1[N+](=O)[O-])C(=O)N/N=C/c1ccoc1` (stereo not drawn), the AC50 was > 42 µM (inactive).

For `O=S(=O)(NCCN1CCCC1)c1cccc2cccnc12`, the AC50 was > 42 µM (inactive).

As for `CCc1cc2c(NCCO)ncnc2s1`, the AC50 was > 42 µM (inactive).

Consider `Cn1c(=O)[nH]c(=O)c2c1nc(Sc1ccccc1)n2CCc1ccccc1`, for which the AC50 is > 42 µM (inactive).

As to `O=C(NCc1nc(-c2ccccc2)no1)c1cccs1`, the AC50 was > 42 µM (inactive).

For `CCC(=O)Nc1ccc(S(=O)(=O)NCc2ccco2)cc1`, the AC50 is > 42 µM (inactive).

For `CCN1C(=O)c2cccc3c(S(=O)(=O)Nc4ccc(OC)cc4OC)ccc1c23`, the AC50 was > 42 µM (inactive).

In the case of `CCOC(=O)c1oc2c(c1C)C(=O)CCC2`, the AC50 was > 42 µM (inactive).

Turning to `CC1CN=C(NCc2ccccc2)S1` (stereo not drawn), the AC50 is > 42 µM (inactive).

In the case of `CC1(C)CNc2cc([N+](=O)[O-])ccc2S1`, the AC50 was > 42 µM (inactive).

Turning to `CC(=O)N1N=C(c2ccc(C(C)(C)C)cc2)OC1(C)C`, the AC50 is > 42 µM (inactive).

Regarding `O=C(O)C1C2CCCCC2=C2CCCCC2C1C(=O)c1ccccc1` (stereo not drawn), the AC50 was > 42 µM (inactive).

Take `Cc1ccc(S(=O)(=O)N2[C@@H](c3ccccc3)C(C(=O)O)=CC[C@H]2c2ccc(Cl)cc2)cc1`: the AC50 was > 42 µM (inactive).

On to `O=C(CCC1CCCN(C(=O)Cc2cccc(F)c2)C1)N1CCN(c2ccccn2)CC1` (stereo not drawn), for which the AC50 was > 42 µM (inactive).

As to `N#Cc1cccc(NC(=O)CSc2n[nH]c(=O)[nH]c2=O)c1`, the AC50 was > 42 µM (inactive).

As to `CN(C)S(=O)(=O)c1cccc(NC(=O)C(c2ccccc2)c2ccccc2)c1`, the AC50 was > 42 µM (inactive).

Consider `COC(=O)[C@H](Cc1ccccc1)NC(=O)NC(C)CCc1ccccc1` (stereo partly drawn), for which the AC50 was > 42 µM (inactive).

With `CCOc1ccc2nc(CN3CCN(Cc4ccccc4OCC)C(CCO)C3)ccc2c1` (stereo not drawn), the AC50 is > 42 µM (inactive).

`CCCn1c(SC(C)C(=O)NCC2CCCO2)nc2sc(CC)cc2c1=O` (stereo not drawn): the AC50 is > 42 µM (inactive).

For `COc1cccc(/C=C2/C(=O)NN(c3ccc(Br)cc3)C2=O)c1O`, the AC50 is > 42 µM (inactive).

`Cc1ccc(NS(=O)(=O)c2cc(C(=O)Nc3cccc([N+](=O)[O-])c3)ccc2C)cc1`: the AC50 is > 42 µM (inactive).

Take `CC1(C)Cc2c(cnn2-c2ccc(F)cc2)C(NC(=O)CCCN2CCCCC2=O)C1` (stereo not drawn): the AC50 was > 42 µM (inactive).

On to `CCOC(=O)c1c(C)n(C)c2cc(-c3ccc(C)cc3)c(O)cc12`, for which the AC50 is > 42 µM (inactive).

Take `O=C(NCCCN1CCOCC1)C1CCC(=O)N1CCc1ccccc1` (stereo not drawn): the AC50 is > 42 µM (inactive).

Consider `Cc1cc(C(=O)N/N=C/c2ccc3c(c2)OCO3)c2ccccc2n1`, for which the AC50 was > 42 µM (inactive).

Regarding `O=[N+]([O-])c1cc([N+](=O)[O-])c2cc3ccccc3nc2c1`, the AC50 is > 42 µM (inactive).

As for `Cc1ccc(NC(=O)N[C@H](C(=O)O)C(C)C)c(C)c1`, the AC50 is > 42 µM (inactive).

On to `Cc1sc(NC(=O)CSC2=NCCS2)nc1-c1ccccc1`, for which the AC50 is > 42 µM (inactive).

As to `CCCCNS(=O)(=O)c1ccc(OC)cc1`, the AC50 is > 42 µM (inactive).

In the case of `CCOc1ccc(N(C(=O)C2CCCO2)C2C=CS(=O)(=O)C2)cc1` (stereo not drawn), the AC50 was > 42 µM (inactive).

Consider `CCOC(=O)c1c(N)sc(C(=O)N2CCCC(C(N)=O)C2)c1C` (stereo not drawn), for which the AC50 is > 42 µM (inactive).

As for `Cc1cc(C(F)(F)F)c(C#N)c(=O)[nH]1`, the AC50 was > 42 µM (inactive).

Regarding `CSCCC(NC(=O)c1ccco1)C(=O)N1CCN(Cc2ccccc2)CC1` (stereo not drawn), the AC50 is > 42 µM (inactive).

As to `CN(CC(=O)Nc1sccc1C#N)Cc1ccccc1`, the AC50 is > 42 µM (inactive).

`COc1ccc(C(=O)N2CCN(c3ccc(NC(=O)c4cccnc4)cc3)CC2)cc1`: the AC50 is > 42 µM (inactive).

With `CCOc1ccccc1CN1CCNC(=O)C1CC(=O)NCCN1CCOC1=O` (stereo not drawn), the AC50 is > 42 µM (inactive).

Consider `CCC(NC(=O)c1ccccc1NC(=O)c1ccco1)C(=O)NC1CCCCC1` (stereo not drawn), for which the AC50 was > 42 µM (inactive).

On to `O=c1/c(=C/c2ccco2)sc2nc(-c3ccccc3Br)nn12`, for which the AC50 is > 42 µM (inactive).

Take `O=C(CCc1ccccc1)N1CCN(c2ccccc2F)CC1`: the AC50 was > 42 µM (inactive).

With `CCOc1cc(C(=S)N2CCOCC2)ccc1OC(=O)c1ccc(C)cc1`, the AC50 is > 42 µM (inactive).

Turning to `COc1cc(C(=O)Nc2ccc3c(c2)OCCO3)ccc1-n1cnnn1`, the AC50 is > 42 µM (inactive).

With `O=C(CSc1ncn[nH]1)Nc1cccc(S(=O)(=O)N2CCCCCC2)c1`, the AC50 was > 42 µM (inactive).

As for `CCOC(=O)C1(Cc2cccc(Cl)c2)CCCN(C(=O)CCOC)C1` (stereo not drawn), the AC50 was > 42 µM (inactive).

As for `O=S(=O)(NCc1ccco1)c1ccc2ccccc2c1`, the AC50 is > 42 µM (inactive).

On to `CCCCn1c(N)c(N(CC(C)C)C(=O)c2cc(-c3ccc(F)cc3)nc3ccccc23)c(=O)[nH]c1=O`, for which the AC50 was > 42 µM (inactive).

`Cc1n[nH]c(=O)c2c(NC(=O)COC(=O)Cc3ccc(Cl)cc3Cl)oc(C)c12`: the AC50 was > 21 µM (inactive).

With `C=C(C)Cc1c(C)c(C#N)c2[nH]c3ccccc3n2c1=O`, the AC50 is > 42 µM (inactive).

With `O=c1c2ccccc2ncn1Cc1ccc(Cl)cc1`, the AC50 is > 42 µM (inactive).

With `O=C(c1cccnc1)N1CCCC(Nc2ccc(F)cc2)C1` (stereo not drawn), the AC50 was > 42 µM (inactive).

`Cc1ccc(NC(=O)Cn2c(CCC(=O)O)ccc2-c2cccs2)cc1`: the AC50 was > 42 µM (inactive).

Turning to `Cc1c(C(=O)N2CCOCC2)c(S(=O)(=O)Nc2cccc(Br)c2)c(C)n1C`, the AC50 is > 42 µM (inactive).

On to `Cc1ccc(C(=O)Nc2nc(-c3ccc(F)cc3)cs2)o1`, for which the AC50 is > 42 µM (inactive).

`COc1ccc(C(=O)NCCSc2ccc(C)cc2)cc1`: the AC50 was > 42 µM (inactive).

On to `CC[n+]1c(/C=C(\C)SC)sc2ccccc21`, for which the AC50 was > 42 µM (inactive).

Turning to `O=C1CCC(/C=C/c2ccccc2)=NN1Cc1ccc(Cl)c(Cl)c1`, the AC50 was > 42 µM (inactive).

With `O=C1CC(N(CCc2ccccc2)C(=S)Nc2ccccc2)C(=O)N1c1ccc(F)cc1` (stereo not drawn), the AC50 is > 42 µM (inactive).

Take `CC(=O)N1CCN(CC(O)COc2ccc(OCc3ccccc3)cc2)CC1` (stereo not drawn): the AC50 is > 42 µM (inactive).

With `COc1cccc(-n2nnc3c(=O)n(CC(=O)N4CCCc5ccccc54)cnc32)c1`, the AC50 was > 42 µM (inactive).

Consider `Cc1nc2c3ccccc3nc(NNC(=O)CCC(=O)N3CCCC(C)C3)n2n1` (stereo not drawn), for which the AC50 was > 42 µM (inactive).

Regarding `COc1cc(C(=O)NCCC2=CCCCC2)ccc1OC1CCN(C(C)=O)CC1`, the AC50 is > 42 µM (inactive).

Consider `CC(C)c1cc(N2CCOCC2)n2ncc(-c3ccccc3)c2n1`, for which the AC50 was > 42 µM (inactive).

Turning to `C/C=C(/C)C(=O)OC1c2c(ccc3ccc(=O)oc23)OC(C)(C)C1OC(=O)/C(C)=C\C` (stereo not drawn), the AC50 was > 42 µM (inactive).

In the case of `Brc1ccc(-c2cn3cccnc3n2)cc1`, the AC50 was > 42 µM (inactive).

In the case of `CC(C)[N+]1(C)[C@@H]2CC[C@@H]1CC(OC(=O)C(CO)c1ccccc1)C2` (stereo partly drawn), the AC50 was > 42 µM (inactive).

For the molecule `O=C(c1cc2c(ccc3ccccc32)oc1=O)N1CCCC1`, the AC50 was > 42 µM (inactive).

These data come from PubChem BioAssay AID463199 (Broad Institute, 2010).
